The target in one test is cathepsin B (Homo sapiens, UniProt P07858). The test is described as follows: Biochemical cathepsin B cleavage assay (metabolite detection by RP-HPLC). The method, then: Incubation of samples starts with addition of cathepsin B solution (2.5 μg in […] 50 mM sodium phosphate buffer, pH 6.0/2 mM DTT). The incubation is performed at 40° C., and after 16 h incubation a 40 μL sample is taken and added to 80 μL ice-cold methanol. […] The metabolite (product) and the parent compound (educt) is measured.

The subject of test [1] is NCI H292. Briefly: Cytotoxicity in vitro in presence/absence of cathepsin B. Type of test: cell-based, human.
Test [2] has as its system HT29. The test is described as above. Type of test: cell-based, human.
Test [3] has as its system SUM149. The test is described as follows: Cytotoxicity assay (Version 2, automated, AC50) with/without neutrophil elastase. Type of test: cell-based. Particulars: Version 2, activity concentration at −50%. A digest of the protocol: (§1)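 MTT absorbance at 570 nm after 72 h compound exposure (10^−5–10^−13 M, triplicate), run in parallel sets ± 10 nM elastase. Values normalized between medium-only wells (−100%) and DMSO controls (0%); AC50 = concentration giving −50%, via 4-parameter Hill fit.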

Test [4] concerns NCI H292. The description is as above. The test is classed as cell-based, human. The settings on record: Version 2, activity concentration at −50%. A digest of the protocol: as §1
Test [5] relates to HT29. The description is as above. The test is classed as cell-based, human. Particulars: Version 2, activity concentration at −50%. The method in brief:
as §1

For a further test, the system named is 786-O. The description is as above. The test is classed as cell-based, human. The settings on record: Version 2, activity concentration at −50%. The method in brief:
as §1

For test [6], the system named is SUM149. The test is described as follows: Cytotoxicity in vitro in presence/absence of cathepsin B. Type of test: cell-based.
Another test addresses rec. human legumain (Homo sapiens, UniProt Q99538). Particulars: for metabolite formation after incubation with legumain: 16 h incubation, 37° C., pH 5,0; for metabolite formation without addition of active legumain: control without active legumain. The procedure:
10 μg rec. human legumain are added to 100 μL activation buffer (50 mM sodium acetate buffer/100 mM NaCl, pH 4,0) and incubated for 2 h at 37° C., before 4.9 mL assay buffer (50 mM MES buffer/250 mM NaCl, pH 5,0) is added (final concentration of rec. hum. legumain: 2 μg/mL). For the selected sample, activated legumain is added to the compound solution. Then the solution is incubated at 37° C. At 16 h-a 50 μL sample is taken and added to 100 μL ice-cold methanol. For the untreated control (0 h) ice-cold methanol is pipetted in a tube before the legumain and compound solution are added. Samples can be stored at −20° C. or analyzed directly by HPLC or LCMS. The metabolite and the parent compound (educt) are measured.
Samples from enzymatic assays are added to the double volume of methanol and incubated for at least 30 min at −20° C. to precipitate proteins. Samples are then centrifuged for 10 min, 16100×g at 4° C. and analyzed by RP-HPLC using a gradient (PLRP-S-A1 79.0% PLRP-S—B1 21.0%, duration 24 min). After the centrifugation the supernatant is collected, calibration curves are obtained using the respective compound and the corresponding metabolite solution. A 10 mM DMSO stock solution is diluted with Methanol to achieve the chosen end concentration.

For test [7], the system named is NCI H292. The test is described as follows: Cytotoxicity in vitro in presence/absence of legumain. The test is classed as cell-based, human.
Test [8] deals with HT29. The description is as above. Type of test: cell-based, human.
In test [9] the test system is SUM149. Described as above. Type of test: cell-based.
Setting [10] is: SUM149, with (+) neutrophil elastase.
[11] abbreviates: SUM149, without (−) neutrophil elastase.
The mark [12] stands for this setting: NCI H292, with (+) neutrophil elastase.
Setting [13] is: NCI H292, without (−) neutrophil elastase.
[14] abbreviates: HT29, with (+) neutrophil elastase.
Setting [15] is: HT29, without (−) neutrophil elastase.
Setting [16] is: without (−) neutrophil elastase.

The text below walks through data of US20240408222A1, “COMPOUNDS, PHARMACEUTICAL COMPOSITIONS, AND METHODS FOR THE TREATMENT, PREVENTION, OR MANAGEMENT OF HYPERPRO[…]” (VINCERX PHARMA GMBH, priority 2021, published 2024).

pIC50: −log10 of the molar value.

Usually pIC50 stands for −log10 of the IC50, conventionally taken in molar units. Read a high pIC50 as a small IC50. By AC50 is commonly meant the midpoint of the concentration-response curve, whichever way the signal moves.

Chain of rec. human legumain (Q99538 18-323 limits assumed): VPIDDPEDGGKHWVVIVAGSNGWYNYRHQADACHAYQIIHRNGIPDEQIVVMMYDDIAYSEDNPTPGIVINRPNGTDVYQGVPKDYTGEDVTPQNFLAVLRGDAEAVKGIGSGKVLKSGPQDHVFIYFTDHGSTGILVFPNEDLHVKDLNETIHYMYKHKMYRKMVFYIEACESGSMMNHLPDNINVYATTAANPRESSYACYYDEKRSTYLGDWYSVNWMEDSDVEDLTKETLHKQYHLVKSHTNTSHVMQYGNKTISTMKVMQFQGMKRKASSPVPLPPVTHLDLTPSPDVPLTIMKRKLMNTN

For `CCCNC(=O)Nc1cccc(S(=O)(=O)Nc2cccc([C@@H](CC(=O)[O-])NC(=O)Nc3ccc(NC(=O)NCCOCCOCCOCCC(=O)N[C@H](C(=O)N[C@@H](CCCNC(N)=O)C(=O)N=[S@@](C)(=O)Cc4cc5cc(c4)OCCCCOc4cc(F)ccc4-c4nc(ncc4F)N5)C(C)C)cc3)c2)c1.[Na+]` [Compound 7, sodium N-{14-[4-({[(1R)-2-carboxylato-1-{3-[({3-[(propylcarbamoyl)amino]phenyl}sulfonyl)amino]phenyl}ethyl]carbamoyl}amino)anilino]-14-oxo-4,7,10-trioxa-13-azatetradecan-1-oyl}-L-valyl-N^5-carbamoyl-N—[(S)-{[16,20-difluoro-2,3,4,5-tetrahydro-12H-13,17-(azeno)-11,7-(metheno)-1,6,12,14-benzodioxadiazacyclononadecin-9-yl]methyl}(methyl)oxido-lambda^6-sulfanylidene]-L-ornithinamide], on cathepsin B (16 h incubation, 40° C., pH 6.0), the “metabolite detected after incubation with cathepsin B” value turned out to be 16%. On cathepsin B (control without active cathepsin B), the “metabolite formation without addition of active cathepsin B” value is “no metabolite formation is detected”. Further, the pIC50 in the test on NCI H292 [1] (NCI H292, with (+) cathepsin) was 7.00 to 7.96; with NCI H292 [1] (NCI H292, without (−) cathepsin), 7.00 to 7.96; with HT29 [2] (HT29, with (+) cathepsin) it was below 7.00; in the test on HT29 [2] (HT29, without (−) cathepsin), below 7.00; in the test with SUM149 [6] (SUM149, with (+) cathepsin), 7.00 to 7.96; in the test on SUM149 [6] (SUM149, without (−) cathepsin), below 7.00. The AC50 was 11 to 100 nM with SUM149 [3] (setting [10]); 11 to 100 nM in the test on SUM149 [3] (setting [11]); 100 to 1000 nM in the test with NCI H292 [4] (setting [12]); 100 to 1000 nM in the test on NCI H292 [4] (setting [13]); 11 to 100 nM in the test with HT29 [5] (setting [14]); 11 to 100 nM in the test with HT29 [5] (setting [15]). The concentration at half-maximal activity (AC50) in the test with 786-O (with (+) neutrophil elastase) and with 786-O (setting [16]) was 11 to 100 nM in each case.
Turning to `CCCNC(=O)Nc1cccc(S(=O)(=O)Nc2cccc([C@@H](CC(=O)[O-])NC(=O)Nc3ccc(NC(=O)NCCOCCOCCOCCC(=O)N[C@@H](C)C(=O)N(C)[C@@H](C)C(=O)N[C@@H](CC(=O)N=[S@@](C)(=O)Cc4cc5cc(c4)OCCCCOc4cc(F)ccc4-c4nc(ncc4F)N5)C(N)=O)cc3)c2)c1.[Na+]` [Compound 8, sodium N-{14-[4-({[(1R)-2-carboxylato-1-{3-[({3-[(propylcarbamoyl)amino]phenyl}sulfonyl)amino]phenyl}ethyl]carbamoyl}amino)anilino]-14-oxo-4,7,10-trioxa-13-azatetradecan-1-oyl}-L-alanyl-N-methyl-L-alanyl-N′—[(S)-{[16,20-difluoro-2,3,4,5-tetrahydro-12H-13,17-(azeno)-11,7-(metheno)-1,6,12,14-benzodioxadiazacyclononadecin-9-yl]methyl}(methyl)oxido-lambda^6-sulfanylidene]-L-aspartamide], the “metabolite formation after incubation with legumain” value on rec. human legumain was “complete metabolite formation”. Further, on rec. human legumain, the “metabolite formation without addition of active legumain” value is reported as “no metabolite formation is detected”. Moreover, the pIC50 is 8.00 to 8.96 in the test with NCI H292 [7] (NCI H292, with (+) legumain); 7.00 to 7.96 in the test on NCI H292 [7] (NCI H292, without (−) legumain); 7.00 to 7.96 with HT29 [8] (HT29, with (+) legumain); 7.00 to 7.96 in the test with HT29 [8] (HT29, without (−) legumain); 7.00 to 7.96 in the test with SUM149 [9] (SUM149, with (+) legumain); 7.00 to 7.96 in the test on SUM149 [9] (SUM149, without (−) legumain). Also, the AC50 with SUM149 [3] (setting [10]) is 100 to 1000 nM; in the test on SUM149 [3] (setting [11]) it was above 1000 nM; in the test on NCI H292 [4] (setting [12]) it was 100 to 1000 nM; in the test with NCI H292 [4] (setting [13]), 100 to 1000 nM; in the test with HT29 [5] (setting [14]), 11 to 100 nM; in the test with HT29 [5] (setting [15]), above 1000 nM. For the same compound, the AC50 was 100 to 1000 nM with 786-O (with (+) neutrophil elastase) and above 1000 nM with 786-O (setting [16]).
For “Sodium N-{14-[4-({[(1S)-2-carboxylato-1-{3-[({3-[(propylcarbamoyl)amino]phenyl}sulfonyl) amino]phenyl}ethyl]carbamoyl}amino)anilino]-14-oxo-4,7,10-trioxa-13-azatetradecan-1-oyl}-L-alanyl-N-methyl-L-alanyl-N′—[(S)-{[16,20-difluoro-2,3,4,5-tetrahydro-12H-13,17-(azeno)-11,7-(metheno)-1,6,12,14-benzodioxadiazacyclononadecin-9-yl]methyl} (methyl)oxido-lambda^6-sulfanylidene]-L-aspartamide [Compound 13]”, at rec. human legumain, the “metabolite formation after incubation with legumain” value was “complete metabolite formation”. The “metabolite formation without addition of active legumain” value at rec. human legumain is “no metabolite formation is detected”. Besides, the pIC50 was 7.00 to 7.96 with NCI H292 [7] (NCI H292, with (+) legumain); 7.00 to 7.96 in the test with NCI H292 [7] (NCI H292, without (−) legumain); 7.00 to 7.96 with HT29 [8] (HT29, with (+) legumain); 7.00 to 7.96 with HT29 [8] (HT29, without (−) legumain); 7.00 to 7.96 in the test with SUM149 [9] (SUM149, with (+) legumain); 7.00 to 7.96 in the test on SUM149 [9] (SUM149, without (−) legumain). The AC50 with SUM149 [3] (setting [10]) was 11 to 100 nM; with SUM149 [3] (setting [11]) it was above 1000 nM; with NCI H292 [4] (setting [12]) it was 100 to 1000 nM; in the test with NCI H292 [4] (setting [13]), 100 to 1000 nM; in the test with HT29 [5] (setting [14]), 11 to 100 nM; in the test on HT29 [5] (setting [15]), above 1000 nM. In addition, the AC50 in the test on 786-O (with (+) neutrophil elastase) is 11 to 100 nM; with 786-O (setting [16]), above 1000 nM.
